Reference: patent publication EP4559908A1, “HETEROARYL DERIVATIVE COMPOUND AND USE THEREOF” (S2CBio Inc., priority 2022, dated 2024)

Molecular target: T1, human ANO6 (variant 5) (Homo sapiens, UniProt Q4KMQ2)
T1 construct: expressed in transfected cells; host or cells: Fischer rat thyroid (FRT) cells
T1 sequence (Q4KMQ2 1-931 isoform Q4KMQ2-2): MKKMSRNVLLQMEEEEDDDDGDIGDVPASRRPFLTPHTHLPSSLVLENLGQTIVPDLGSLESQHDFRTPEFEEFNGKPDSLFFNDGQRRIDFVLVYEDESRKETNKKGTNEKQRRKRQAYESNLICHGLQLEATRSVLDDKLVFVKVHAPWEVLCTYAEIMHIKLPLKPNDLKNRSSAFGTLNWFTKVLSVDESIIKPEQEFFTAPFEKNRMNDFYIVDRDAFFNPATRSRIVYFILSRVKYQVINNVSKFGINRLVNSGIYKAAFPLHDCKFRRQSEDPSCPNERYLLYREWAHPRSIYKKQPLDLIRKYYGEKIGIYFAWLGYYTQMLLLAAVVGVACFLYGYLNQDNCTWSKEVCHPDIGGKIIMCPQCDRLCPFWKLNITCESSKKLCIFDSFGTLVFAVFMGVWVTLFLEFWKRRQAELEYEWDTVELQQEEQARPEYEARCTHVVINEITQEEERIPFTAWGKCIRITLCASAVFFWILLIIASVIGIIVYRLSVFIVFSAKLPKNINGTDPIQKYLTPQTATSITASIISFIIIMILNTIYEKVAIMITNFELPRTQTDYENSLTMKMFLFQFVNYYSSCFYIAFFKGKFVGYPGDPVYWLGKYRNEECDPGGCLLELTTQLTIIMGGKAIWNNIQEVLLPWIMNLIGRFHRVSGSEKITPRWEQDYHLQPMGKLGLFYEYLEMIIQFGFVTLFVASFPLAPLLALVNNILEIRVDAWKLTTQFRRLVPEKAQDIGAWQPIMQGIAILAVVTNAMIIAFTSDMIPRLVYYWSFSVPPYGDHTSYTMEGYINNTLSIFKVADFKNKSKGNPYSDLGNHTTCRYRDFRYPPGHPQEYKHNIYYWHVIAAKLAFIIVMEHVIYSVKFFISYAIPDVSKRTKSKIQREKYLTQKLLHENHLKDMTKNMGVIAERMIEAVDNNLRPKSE
Test: Lact C2 assay (measuring phosphatidylserine externalization scramblase function)
Format: cell-based
Conditions: FRT, FRT cells expressing human ANO6 (variant 5), ionomycin 10 µM, Lact-C2-GFP fluorescence, average of three tests; for inhibition at 0.05 µM: compound 50 nM, read-out: % Inhibition 50 nM; for inhibition at 0.1 µM: compound 100 nM; for inhibition at 1 µM: compound 1 µM, read-out: % Inhibition 1 µM
Method: Ionomycin (Alomonelab, cat. # I-700), DAPI (Sigma- Aldrich, cat. # D8417), paraformaldehyde (Biosesang, cat. #P2031), Lionheart FX automated fluorescence microscope (BioTek), Gen5™ software program (BioTek), and Image J analysis software program.
After the incubation, the cells were treated with compounds dissolved in DMSO to 1% v/v in each well at each concentration (50 nM, 100 nM, and 1 µM) and reacted for 10 minutes. Thereafter, each well was treated with ionomycin to a final concentration of 10 µM, allowed to react for 10 minutes, and then washed with 200 µL PBS. After washing, each well was treated with 50 µL of Lactadherin-C2 (Lact-C2)-GFP mixed in DMEM medium to a final concentration of 500 nM to stain phosphatidylserine, and cultured at 37°C for 10 minutes. After completion of the reaction, the cells were washed with 200 µL PBS, and fixed with 4% paraformaldehyde for 5 minutes at room temperature. For morphological analysis, DAPI solution was added, and the cells were incubated for 15 minutes, followed by washing with PBS. The fluorescence intensity of Lact-C2-GFP bound to phosphatidylserine on the cell surface was measured using an automated fluorescence microscope. For quantitative analysis of the fluorescence intensity of Lact-C2-GFP, BioTek Gen5™ software and Image J analysis software programs were used.
Phosphatidylserine externalization inhibitory activity (%) by the compound was calculated through the following analysis method. Specifically, the background fluorescence value was subtracted from the measured Lact-C2-GFP fluorescence value, and the fluorescence value of the ionomycin non-treatment group and the ionomycin-treatment group in the same row where each test group was located in a 96-well microplate were calculated. In order to calculate the inhibitory activity (%) by the compound, the relative inhibitory activity was calculated by setting the compound and ionomycin non-treatment group to 100% inhibitory activity and the ionomycin alone treatment group to 0% inhibitory activity.

SMILES | inhibition at 0.05 µM | inhibition at 0.1 µM | inhibition at 1 µM
FC(F)(F)c1ccc2nc(-c3cccc(Nc4ccc(-c5ccccc5)nn4)c3)[nH]c2c1 [Example 1, 6-phenyl-N-(3-(6-(trifluoromethyl)-1H-benzo[d]imidazol-2-yl)phenyl)pyridazin-3-amine] | 30 to 60% | > 60% | > 60%
c1ccc(-c2ccc(Nc3cccc(-c4nc5ccccc5[nH]4)c3)nn2)cc1 [Example 2, N-(3-(1H-benzo[d]imidazol-2-yl)phenyl)-6-phenylpyridazin-3-amine] |  | > 60% | > 60%
CC(C)(C)c1ccc2nc(-c3cccc(Nc4ccc(-c5ccccc5)nn4)c3)[nH]c2c1 [Example 3, N-[3-(6-tert-butyl-1H-benzo[d]imidazol-2-yl)phenyl]-6-phenylpyridazin-3-amine] | > 60% | > 60% | > 60%
Fc1cc2nc(-c3cccc(Nc4ccc(-c5ccccc5)nn4)c3)[nH]c2cc1Br [Example 4, N-[3-(6-bromo-5-fluoro-1H-benzo[d]imidazol-2-yl)phenyl]-6-phenylpyridazin-3-amine] | 30 to 60% | > 60% | > 60%
FC(F)(F)Oc1ccc2nc(-c3cccc(Nc4ccc(-c5ccccc5)nn4)c3)[nH]c2c1 [Example 6, 6-phenyl-N-(3-(6-(trifluoromethoxy)-1H-benzo[d]imidazol-2-yl)phenyl)pyridazin-3-amine] |  | > 60% | > 60%
Clc1cc2nc(-c3cccc(Nc4ccc(-c5ccccc5)nn4)c3)[nH]c2cc1Cl [Example 7, N-(3-(5,6-dichloro-1H-benzo[d]imidazol-2-yl)phenyl)-6-phenylpyridazin-3-amine] | > 60% | > 60% | > 60%
FC(F)(F)c1cc2nc(-c3cccc(Nc4ccc(-c5ccccc5)nn4)c3)[nH]c2cc1Cl [Example 8, N-{3-[6-chloro-5-(trifluoromethyl)-1H-benzo[d]imidazol-2-yl]phenyl}-6-phenylpyridazin-3-amine] | > 60% | > 60% | > 60%
FC(F)(F)c1cc2nc(-c3cccc(Nc4ccc(-c5ccccc5)nn4)c3)[nH]c2cc1Br [Example 9, N-{3-[6-bromo-5-(trifluoromethyl)-1H-benzo[d]imidazol-2-yl]phenyl}-6-phenylpyridazin-3-amine] | > 60% | > 60% | > 60%
FC(F)(F)Oc1cc2nc(-c3cccc(Nc4ccc(-c5ccccc5)nn4)c3)[nH]c2cc1Cl [Example 10, N-{3-[6-chloro-5-(trifluoromethoxy)-1H-benzo[d]imidazol-2-yl]phenyl}-6-phenylpyridazin-3-amine] | > 60% | > 60% | > 60%
Fc1cc(Br)c2[nH]c(-c3cccc(Nc4ccc(-c5ccccc5)nn4)c3)nc2c1 [Example 11, N-(3-(7-bromo-5-fluoro-1H-benzo[d]imidazol-2-yl)phenyl)-6-phenylpyridazin-3-amine] |  | 30 to 60% | > 60%
Clc1ccc2nc(-c3cccc(Nc4ccc(-c5ccccc5)nn4)c3)[nH]c2c1 [Example 12, N-[3-(6-chloro-1H-benzo[d]imidazol-2-yl)phenyl]-6-phenylpyridazin-3-amine] | > 60% | > 60% | > 60%
Clc1cc2nc(-c3cccc(Nc4ccc(-c5ccccc5)cn4)c3)[nH]c2cc1Cl [Example 13, N-[3-(5,6-dichloro-1H-benzo[d]imidazol-2-yl)phenyl]-5-phenylpyridin-2-amine] | > 60% | > 60% | > 60%
FC(F)(F)c1ccc2nc(-c3cccc(Nc4ncc(-c5ccccc5)cn4)c3)[nH]c2c1 [Example 14, 5-phenyl-N-(3-(6-(trifluoromethyl)-1H-benzo[d]imidazol-2-yl)phenyl)pyrimidin-2-amine] | > 60% | > 60% | > 60%
FC(F)(F)c1ccc2nc(-c3cccc(Nc4ccc(-c5ccccc5)cn4)c3)[nH]c2c1 [Example 15, 5-Phenyl-N-{3-[6-(trifluoromethyl)-1H-benzo[d]imidazol-2-yl]phenyl}pyridin-2-amine] | > 60% | > 60% | > 60%
Fc1cccc(-c2cnc(Nc3cccc(-c4nc5ccc(C(F)(F)F)cc5[nH]4)c3)nc2)c1 [Example 17, 5-(3-Fluorophenyl)-N-{3-[6-(trifluoromethyl)-1H-benzo[d]imidazol-2-yl]phenyl}pyrimidin-2-amine] | > 60% | > 60% | > 60%

The remaining lines, values ahead:

inhibition at 0.05 µM | inhibition at 0.1 µM | inhibition at 1 µM | SMILES
> 60% | > 60% | > 60% | Fc1cccc(-c2ccc(Nc3cccc(-c4nc5ccc(C(F)(F)F)cc5[nH]4)c3)nc2)c1 [Example 18, 5-(3-fluorophenyl)-N-(3-(6-(trifluoromethyl)-1H-benzo[d]imidazol-2-yl)phenyl)pyridin-2-amine]
30 to 60% | > 60% | > 60% | c1ccc(-c2ccc(Nc3cccc(-c4nc5ccccc5[nH]4)c3)cc2)cc1 [Example 19, N-[3-(1H-benzo[d]imidazol-2-yl)phenyl]-[1,1'-biphenyl]-4-amine]
> 60% | > 60% | > 60% | c1ccc(-c2ccc(Nc3cccc(-c4nc5ccccc5[nH]4)c3)cc2)nc1 [Example 20, 3-(1H-benzo[d]imidazol-2-yl)-N-(4-(pyridin-2-yl)phenyl)aniline]
> 60% | > 60% | > 60% | c1cc(Nc2ccc(-c3cccnn3)cc2)cc(-c2nc3ccccc3[nH]2)c1 [Example 21, 3-(1H-benzo[d]imidazol-2-yl)-N-(4-(pyridazin-3-yl)phenyl)aniline]
> 60% | > 60% | > 60% | c1cc(Nc2ccc(-c3ccncn3)cc2)cc(-c2nc3ccccc3[nH]2)c1 [Example 22, N-[3-(1H-benzo[d]imidazol-2-yl)phenyl]-4-(pyrimidin-4-yl)aniline]
> 60% | > 60% | > 60% | FC(F)(F)c1ccc2nc(-c3cccc(Nc4ccc(-c5cccnn5)cc4)c3)[nH]c2c1 [Example 23, N-(4-(pyridazin-3-yl)phenyl)-3-(6-(trifluoromethyl)-1H-benzo[d]imidazol-2-yl)aniline]
> 60% | > 60% | > 60% | FC(F)(F)c1ccc2nc(-c3cccc(Nc4ccc(-c5ccncn5)cc4)c3)[nH]c2c1 [Example 24, N-(4-(pyrimidin-4-yl)phenyl)-3-(6-(trifluoromethyl)-1H-benzo[d]imidazol-2-yl)aniline]
> 60% | > 60% | > 60% | Fc1ccc2nc(-c3cccc(Nc4ccc(-c5cccnn5)cc4)c3)[nH]c2c1 [Example 25, 3-(6-fluoro-1H-benzo[d]imidazol-2-yl)-N-(4-(pyridazin-3-yl)phenyl)aniline]
